Results: patent US12091411B2, “IRAK degraders and uses thereof” (Kymera Therapeutics, Inc., priority 2022, dated 2024)
Like-named read-outs stand apart in the source and are kept apart here.

Target: T1, IRAK4 (Homo sapiens, UniProt Q9NWZ3)
T1 construct: Degradation of IRAK4 in OCI-LY10 was quantitatively measured using Meso Scale Discovery technology; endogenous in cells; host or cells: OCI-LY10
T1 sequence (Q9NWZ3 1-460): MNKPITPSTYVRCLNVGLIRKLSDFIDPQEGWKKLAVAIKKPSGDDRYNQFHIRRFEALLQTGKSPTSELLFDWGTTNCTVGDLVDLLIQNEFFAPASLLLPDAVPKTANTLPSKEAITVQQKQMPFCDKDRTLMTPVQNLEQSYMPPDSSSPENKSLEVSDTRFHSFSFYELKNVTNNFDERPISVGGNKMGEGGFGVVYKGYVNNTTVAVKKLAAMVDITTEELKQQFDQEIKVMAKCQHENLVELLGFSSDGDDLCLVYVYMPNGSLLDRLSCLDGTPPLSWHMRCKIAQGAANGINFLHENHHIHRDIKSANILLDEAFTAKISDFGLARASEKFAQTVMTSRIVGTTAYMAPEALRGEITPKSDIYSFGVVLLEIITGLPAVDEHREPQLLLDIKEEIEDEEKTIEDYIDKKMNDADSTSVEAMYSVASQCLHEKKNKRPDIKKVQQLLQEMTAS
Assay: IRAK4 MSD Degradation in OCI-LY10
Assay type: cell-based
Conditions: OCI-LY10 cells, MSD
In short: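 OCI-LY10 cells exposed to 8-point 1:3 compound series (top 1 to 10 μM) for 4 to 24 h at 37 °C, 5% CO2. Lysate IRAK4 quantified by MSD sandwich immunoassay. DC50 from three-parameter logistic fit, binned A (<0.01 μM) to D (>0.2 μM or not tested).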

[1] = 4 hrs incubation, read-out: IRAK4 degradation in OCI-LY10 at 4 hrs: DC50
[2] = 24 hrs incubation, read-out: IRAK4 degradation in OCI-LY10 at 24 hrs: DC50

Row | Compound | DC50 [1] [nM] | DC50 [2] [nM]
1 | COc1cc2nn([C@H]3CC[C@H](CN4CC(c5cncc6c5n(C)c(=O)n6C5CCC(=O)NC5=O)C4)CC3)cc2cc1NC(=O)c1cccc(C(C)(C)F)n1 (some centres unmarked) [I-135] | > 200 | > 200
2 | CN(Cc1ccc(-n2cc(NC(=O)c3cnn4cccnc34)c(C(F)F)n2)cc1)C1CCN(c2cccc3c2n(C)c(=O)n3C2CCC(=O)NC2=O)CC1(F)F (centres unmarked) [I-377] | > 200 | > 200
3 | Cc1cccc(C(=O)Nc2cc3cn([C@H]4CC[C@H](CN5CCN(c6c(F)ccc7c6n(C)c(=O)n7C6CCC(=O)NC6=O)CC5)CC4)nc3cn2)n1 (some centres unmarked) [I-695] | > 200 | < 10
4 | C[C@H]1CN(c2ccn3ncc(C(=O)Nc4cn([C@H]5CC[C@H](CN(C)C6CCN(c7cccc8c7n(C)c(=O)n8C7CCC(=O)NC7=O)CC6(F)F)CC5)nc4C(F)F)c3n2)CCO1 (some centres unmarked) [I-528] | > 200 | 10 to 100
5 | Cc1cccc(C(=O)Nc2cc3cn([C@H]4CC[C@H](CN5CC[C@H](c6cccc7c6n(C)c(=O)n7C6CCC(=O)NC6=O)[C@H](F)C5)CC4)nc3cn2)n1 (some centres unmarked) [I-635] | > 200 | > 200
6 | CN(C[C@H]1CC[C@H](n2cc(NC(=O)c3cnn4ccc(N5CCC(F)(F)CC5)nc34)c(C(F)F)n2)CC1)C1CCN(c2cccc3c2n(C)c(=O)n3C2CCC(=O)NC2=O)CC1(F)F (some centres unmarked) [I-519] | > 200 | > 200
7 | Cn1c(=O)n(C2CCC(=O)NC2=O)c2cccc(C#CCOC3CCN(CC4CCN(c5nc(C(F)F)c(NC(=O)c6cnn7ccc(N8C[C@H]9C[C@@H]8CO9)nc67)s5)CC4)CC3)c21 (some centres unmarked) [I-207] | > 200 | > 200
8 | Cn1c(=O)n(C2CCC(=O)NC2=O)c2cccc(C#CCO[C@H]3CCN(C[C@H]4CC[C@H](n5cc(NC(=O)c6cnn7ccc(N8C[C@H]9C[C@@H]8CO9)nc67)c(C(F)F)n5)CC4)C[C@H]3F)c21 (some centres unmarked) [I-36] | 10 to 100 | > 200
9 | Cn1c(=O)n(C2CCC(=O)NC2=O)c2cccc(CC[C@@H]3CN(Cc4ccc(-n5cc(NC(=O)c6cnn7ccc(N8C[C@H]9C[C@@H]8CO9)nc67)c(C(F)F)n5)cc4)CCO3)c21 (some centres unmarked) [I-396] | > 200 | > 200
10 | COc1cc2nn([C@H]3CC[C@H](CN4CCC5(CC4)CCN(c4cccc6c4n(C)c(=O)n6C4CCC(=O)NC4=O)CC5)CC3)cc2cc1NC(=O)c1cncc(C)c1 (some centres unmarked) [I-89] | > 200 | > 200
11 | Cn1c(=O)n(C2CCC(=O)NC2=O)c2ccc(F)c(N3CC(CN4CCN(C[C@H]5CC[C@H](n6cc(NC(=O)c7cnn8ccc(N9C[C@H]%10C[C@@H]9CO%10)nc78)c(C(F)F)n6)CC5)CC4)C3)c21 (some centres unmarked) [I-676] | > 200 | < 10
12 | Cn1c(=O)n(C2CCC(=O)NC2=O)c2cccc(C#CCO[C@H]3CCN(C[C@H]4CC[C@H](n5cc(NC(=O)c6cnn7ccc(N8CCS(=O)(=O)CC8)nc67)c(C(F)F)n5)CC4)C[C@@H]3F)c21 (some centres unmarked) [I-591] | > 200 | > 200
13 | CN(C[C@H]1CC[C@H](n2cc(NC(=O)c3cnn4ccc(N5CCCOCC5)nc34)c(C(F)F)n2)CC1)C1CCN(c2cccc3c2n(C)c(=O)n3C2CCC(=O)NC2=O)CC1(F)F (some centres unmarked) [I-544] | > 200 | 10 to 100
14 | Cn1c(=O)n(C2CCC(=O)NC2=O)c2cccc(N3CC(CN4CCN(C[C@H]5CC[C@H](n6cc(NC(=O)c7cnn8ccc(N9C[C@H]%10C[C@@H]9CO%10)nc78)c(C(F)F)n6)CC5)CC4)C3)c21 (some centres unmarked) [I-748] | > 200 | > 200
15 | C[C@H]1CN(C[C@H]2C[C@H](n3cc(NC(=O)c4cnn5ccc(N6C[C@H]7C[C@@H]6CO7)nc45)c(C(F)F)n3)C2)CC[C@@H]1OCC#Cc1cccc2c(N3CCC(=O)NC3=O)cncc12 [I-53] | < 10 | > 200
16 | Cn1c(=O)n(C2CCC(=O)NC2=O)c2cccc(C#CCOC3CCN(C[C@H]4CC[C@H](c5ccc(NC(=O)c6cnn7ccc(N8C[C@H]9C[C@@H]8CO9)nc67)c(C(F)F)c5)CC4)CC3)c21 (some centres unmarked) [I-182] | > 200 | > 200
17 | Cn1c(=O)n(C2CCC(=O)NC2=O)c2cccc(C#CC3CN(C[C@H]4CC[C@H](n5cc(NC(=O)c6cnn7ccc(N8C[C@H]9C[C@@H]8CO9)nc67)c(C(F)F)n5)CC4)CCO3)c21 (some centres unmarked) [I-27] | 10 to 100 | > 200
18 | O=C1CCC(c2cc(C#CCOC3CCN(C[C@H]4CC[C@H](n5cc(NC(=O)c6cnn7ccc(N8C[C@H]9C[C@@H]8CO9)nc67)c(C(F)F)n5)CC4)CC3)ccc2Cl)C(=O)N1 (some centres unmarked) [I-257] | > 200 | > 200
19 | Cn1c(=O)n(C2CCC(=O)NC2=O)c2cccc(C#CCN3CCN(C[C@H]4CC[C@H](n5cc(NC(=O)c6cnn7ccc(N8CCS(=O)(=O)CC8)nc67)c(C(F)F)n5)CC4)CC3)c21 (some centres unmarked) [I-295] | > 200 | < 10
20 | Cn1c(=O)n(C2CCC(=O)NC2=O)c2cccc([C@H]3C[C@H](COC4CN(C[C@H]5CC[C@H](n6cc(NC(=O)c7cnn8ccc(N9C[C@H]%10C[C@@H]9CO%10)nc78)c(C(F)F)n6)CC5)C4)C3)c21 (some centres unmarked) [I-598] | > 200 | < 10
21 | C[C@@H]1CN(c2ccn3ncc(C(=O)Nc4cn([C@H]5CC[C@H](CN(C)C6CCN(c7cccc8c7n(C)c(=O)n8C7CCC(=O)NC7=O)CC6)CC5)nc4C(F)F)c3n2)C[C@H](C)O1 (some centres unmarked) [I-442] | 10 to 100 | < 10
22 | Cc1nn([C@H]2CC[C@H](CN3CCN(c4cccc5c4n(C)c(=O)n5C4CCC(=O)NC4=O)CC3)CC2)cc1NC(=O)c1cnn2cc(N(C)C)cnc12 (some centres unmarked) [I-216] | > 200 | > 200
23 | Cn1c(=O)n(C2CCC(=O)NC2=O)c2cccc(N3CCN([C@H]4CCN(C[C@H]5CC[C@H](n6cc(NC(=O)c7cnn8ccc(N9C[C@H]%10C[C@@H]9CO%10)nc78)c(C(F)F)n6)CC5)CC4(F)F)CC3)c21 (some centres unmarked) [I-366] | > 200 | > 200
24 | Cn1c(=O)n(C2CCC(=O)NC2=O)c2cccc(N3CCN(C4CCN(C[C@H]5CC[C@H](n6cc(NC(=O)c7cnn8ccc(N9C[C@H]%10C[C@@H]9CO%10)nc78)c(C(F)F)n6)CC5)CC4)CC3)c21 (some centres unmarked) [I-62] | < 10 | > 200
25 | Cn1c(=O)n(C2CCC(=O)NC2=O)c2cccc(C#CCN3CCN(C[C@H]4CC[C@H](n5cc(NC(=O)c6cnn7ccc(N8CCSCC8)nc67)c(C(F)F)n5)CC4)CC3)c21 (some centres unmarked) [I-294] | > 200 | < 10
26 | C[C@H]1CN(C[C@H]2CC[C@H](n3cc(NC(=O)c4cnn5ccc(N6C[C@H]7C[C@@H]6CO7)nc45)c(C(F)F)n3)CC2)CC[C@@H]1OCC#Cc1cccc2c(N3CCC(=O)NC3=O)cncc12 [I-56] | < 10 | > 200

More lines, now with the values ahead:

Row | DC50 [1] [nM] | DC50 [2] [nM] | Compound
27 | > 200 | < 10 | Cn1c(=O)n(C2CCC(=O)NC2=O)c2cccc(C3CCN(C[C@H]4CC[C@H](n5cc6cc(NC(=O)c7cccc(C(F)(F)F)n7)ncc6n5)CC4)CC3(F)F)c21 (some centres unmarked) [I-447]
28 | < 10 | > 200 | Cn1c(=O)n(C2CCC(=O)NC2=O)c2cccc(N3CCC(OC4CCN(C[C@H]5CC[C@H](n6cc(NC(=O)c7cnn8ccc(N9C[C@H]%10C[C@@H]9CO%10)nc78)c(C(F)F)n6)CC5)CC4)CC3)c21 (some centres unmarked) [I-165]
29 | > 200 | > 200 | Cn1c(=O)n(C2CCC(=O)NC2=O)c2cccc(CCCOC3CCN(C[C@H]4CC[C@H](n5cc(NC(=O)c6cccc(C(F)(F)F)n6)c(C(F)F)n5)CC4)CC3)c21 (some centres unmarked) [I-212]
30 | > 200 | > 200 | Cn1c(=O)n(C2CCC(=O)NC2=O)c2cccc(C3CCN(C[C@H]4CC[C@H](n5cc6cc(NC(=O)c7cccc(C#N)n7)ccc6n5)CC4)CC3(F)F)c21 (some centres unmarked) [I-612]
31 | < 10 | > 200 | Cn1c(=O)n(C2CCC(=O)NC2=O)c2cccc([C@H]3C[C@@H](OC4CCN(C[C@H]5CC[C@H](n6cc(NC(=O)c7cnn8ccc(N9C[C@H]%10C[C@@H]9CO%10)nc78)c(C(F)F)n6)CC5)CC4)C3)c21 (some centres unmarked) [I-81]
32 | > 200 | > 200 | Cn1c(=O)n(C2CCC(=O)NC2=O)c2cccc([C@@H]3CCN(C[C@H]4CC[C@H](n5cc6cc(NC(=O)c7cccc(C(F)F)n7)ccc6n5)CC4)C[C@@H]3F)c21 (some centres unmarked) [I-628]
33 | < 10 | > 200 | Cn1c(=O)n(C2CCC(=O)NC2=O)c2cccc(CC[C@H]3CN(C[C@H]4CC[C@H](n5cc(NC(=O)c6cnn7ccc(N8C[C@H]9C[C@@H]8CO9)nc67)c(C(F)F)n5)CC4)CCO3)c21 (some centres unmarked) [I-385]
34 | > 200 | > 200 | COc1ccc2c(c1C1CCN(C[C@H]3CC[C@H](n4cc5cc(NC(=O)c6cccc(C(F)(F)F)n6)ncc5n4)CC3)CC1(F)F)n(C)c(=O)n2C1CCC(=O)NC1=O (some centres unmarked) [I-448]
35 | > 200 | < 10 | Cn1c(=O)n(C2CCC(=O)NC2=O)c2cccc(C3CCN(C[C@H]4CC[C@H](n5cc6cc(NC(=O)c7cccc(C(F)(F)F)n7)ncc6n5)CC4)CC3F)c21 (some centres unmarked) [I-549]
36 | > 200 | > 200 | Cn1c(=O)n(C2CCC(=O)NC2=O)c2cccc(N3CC4(C3)N(C[C@H]3CC[C@H](n5cc6cc(NC(=O)c7cccc(C(F)(F)F)n7)c(C#N)cc6n5)CC3)CC4(F)F)c21 (some centres unmarked) [I-565]
37 | 10 to 100 | > 200 | Cn1c(=O)n(C2CCC(=O)NC2=O)c2cccc(CN3CCN(C[C@H]4CC[C@H](n5cc(NC(=O)c6cnn7ccc(N8CC9C[C@@H]8CO9)nc67)c(C(F)F)n5)CC4)CC3)c21 (some centres unmarked) [I-190]
